These results are taken from article PMC7111787 (Virology, 2006).

This experiment addresses T1, MHV E protein (Murine hepatitis virus strain A59, UniProt P0C2R0).
T1 sequence (P0C2R0 1-83): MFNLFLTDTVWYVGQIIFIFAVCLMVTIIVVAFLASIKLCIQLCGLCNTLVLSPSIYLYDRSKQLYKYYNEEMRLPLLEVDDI
Kind of experiment: planar lipid bilayer current recording, dose titration. Format: biochemical.

For orientation: EC50 means the concentration at which the effect is half-maximal. A higher EC50 goes with a less potent agent. `N=C(N)NC(=O)c1nc(Cl)c(N2CCCCCC2)nc1N` [HMA, Hexamethylene amiloride] displayed an EC50 of 10.2 µM.
